Results published in paper PMC2885599 (Current Chemical Genomics, 2010).

Tests used:
[1] = test system: phosphorylated Met; details: read-out: IC50 on phosphorylated Met; cited from earlier work
[2] = test system: unphosphorylated Met; details: cited from earlier work
[3] = test system: phosphorylated enzyme (c-Met); details: phosphorylated vs unphosphorylated enzyme; cited from earlier work
[4] = test system: SNU5 gastric cancer cell line in which c-Met is amplified; assay: SNU5 proliferation assay; type: cell-based; details: Homo sapiens, SNU-5, read-out: IC50 in SNU5 proliferation assays
[5] = molecular target: phosphorylated c-Met (Homo sapiens, UniProt P08581); assay: c-Met kinase HTRF assay, phosphorylated form; details: IC50 on the phosphorylated form
[6] = molecular target: unphosphorylated c-Met (Homo sapiens, UniProt P08581); assay: c-Met kinase HTRF assay, unphosphorylated form; type: biochemical
unphosphorylated c-Met, sequence (P08581 956-1390 limits assumed): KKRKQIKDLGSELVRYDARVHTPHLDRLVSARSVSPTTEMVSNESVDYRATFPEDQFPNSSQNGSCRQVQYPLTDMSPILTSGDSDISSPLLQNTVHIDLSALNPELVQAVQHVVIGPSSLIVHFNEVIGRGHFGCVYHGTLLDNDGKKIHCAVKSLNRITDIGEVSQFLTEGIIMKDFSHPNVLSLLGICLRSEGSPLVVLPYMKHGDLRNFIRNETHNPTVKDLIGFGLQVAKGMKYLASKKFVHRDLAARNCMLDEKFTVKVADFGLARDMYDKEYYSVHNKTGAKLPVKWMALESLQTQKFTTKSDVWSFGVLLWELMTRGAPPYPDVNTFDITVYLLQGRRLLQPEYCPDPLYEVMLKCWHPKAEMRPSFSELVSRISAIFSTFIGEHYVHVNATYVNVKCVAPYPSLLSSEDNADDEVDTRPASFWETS

phosphorylated c-Met, sequence (P08581 956-1390 limits assumed): as above

Q: With `COc1cc2c(Oc3ccc(-c4cnc(Cc5ccccc5)n(C)c4=O)cc3F)ccnc2cc1OCCCN1CCOCC1` [AM7, 5-(3-fluoro-4-((6-(methyloxy)-7-((3-(4 morpholinyl)prpyl)oxy)-4-quinolinyl)oxy)phenyl)-3-methyl-2-(phenylmethyl)-4(3H)-pyrimidin-one] as the compound, how does the IC50 [1] read?
A: 17 nM

Q: What about the “fold more potent on unphosphorylated Met” value [2] of the same compound?
A: more than 3 fold

Q: And the IC50 ([2]; read-out: IC50 on unphosphorylated Met)?
A: 5 nM

Q: With `CN(C[C@@H]1COCCO1)S(=O)(=O)Nc1ccc2ccc3ncc(-c4cnn(C)c4)cc3c(=O)c2c1` [MK2461] as the compound, how does the “binds to the phosphorylated enzyme tighter” value [3] read?
A: 6 fold

Q: For `Cc1[nH]c(/C=C2\C(=O)Nc3ccc(S(=O)(=O)N(C)c4cccc(Cl)c4)cc32)c(C)c1C(=O)N1CCN(C)CC1` [SU11274], which IC50 [4] is on record?
A: 30 nM

Q: And the IC50 [5]?
A: 275 nM

Q: And the “difference in potency, phosphorylated vs unphosphorylated form” value [6]?
A: 55 fold
